Measurements taken from the NIST ThermoML archive (doi:10.1021/je0603325).

Assay: xn = mol fraction of the nth substance listed
Conditions: 101 kPa, Liquid

BrCCBr [1,2-dibromoethane] + CCCCCCC
Conditions	mass density [kg/m3]	speed of sound [m/s]
292.6 K, x1 = 0.6005	–	996.77
292.62 K, x1 = 0.2	–	1079.5
292.64 K, x1 = 0.1024	–	1112.1
292.64 K, x1 = 0.2986	–	1050.8
292.66 K, x1 = 0.6997	–	989.87
292.68 K, x1 = 0.4002	–	1027.2
292.68 K, x1 = 0.8004	–	989.25
292.7 K, x1 = 0.4996	–	1009.4
292.7 K, x1 = 0.9061	–	995.84
292.84 K, x1 = 1	–	1007.5
293.15 K, x1 = 0.1018	776.01	–
293.15 K, x1 = 0.2052	878.46	–
293.15 K, x1 = 0.2931	973.9	–
293.15 K, x1 = 0.3754	1070.54	–
293.15 K, x1 = 0.3919	1091.09	–
293.15 K, x1 = 0.5009	1234.71	–
293.15 K, x1 = 0.5993	1379.31	–
293.15 K, x1 = 0.6916	1530.51	–
293.15 K, x1 = 0.7886	1707.97	–
293.15 K, x1 = 0.8919	1922	–
293.15 K, x1 = 1	2178.77	–
298.15 K, x1 = 0.1018	771.16	–
298.15 K, x1 = 0.2052	872.98	–
298.15 K, x1 = 0.2931	968	–
298.15 K, x1 = 0.3754	1064.3	–
298.15 K, x1 = 0.3919	1084.74	–
298.15 K, x1 = 0.5009	1227.73	–
298.15 K, x1 = 0.5993	1372.04	–
298.15 K, x1 = 0.6916	1522.49	–
298.15 K, x1 = 0.7886	1699.34	–
298.15 K, x1 = 0.8919	1912.55	–
298.15 K, x1 = 1	2168.41	–
298.56 K, x1 = 0.1024	–	1088
298.56 K, x1 = 0.9061	–	980
298.58 K, x1 = 0.2	–	1056.5
298.59 K, x1 = 0.4996	–	990.17
298.59 K, x1 = 0.6005	–	978.03
298.6 K, x1 = 0.4002	–	1006.7
298.6 K, x1 = 0.6997	–	972.29
298.68 K, x1 = 0.8004	–	972.17
298.69 K, x1 = 0.2986	–	1028.6
299.17 K, x1 = 1	–	991.14
303.15 K, x1 = 0.1018	766.4	–
303.15 K, x1 = 0.2052	867.72	–
303.15 K, x1 = 0.2931	962.23	–
303.15 K, x1 = 0.3754	1058	–
303.15 K, x1 = 0.3919	1078.36	–
303.15 K, x1 = 0.5009	1220.93	–
303.15 K, x1 = 0.5993	1364.69	–
303.15 K, x1 = 0.6916	1514.35	–
303.15 K, x1 = 0.7886	1690.56	–
303.15 K, x1 = 0.8919	1903.13	–
303.15 K, x1 = 1	2157.94	–
303.37 K, x1 = 1	–	980.18
303.54 K, x1 = 0.4002	–	989.74
303.57 K, x1 = 0.9061	–	966.53
303.59 K, x1 = 0.1024	–	1067.7
303.61 K, x1 = 0.2	–	1037.2
303.61 K, x1 = 0.6997	–	957.6
303.62 K, x1 = 0.6005	–	962.51
303.65 K, x1 = 0.2986	–	1010.6
303.66 K, x1 = 0.4996	–	973.72
303.78 K, x1 = 0.8004	–	957.87
308.15 K, x1 = 0.1018	761.38	–
308.15 K, x1 = 0.2052	862.14	–
308.15 K, x1 = 0.2931	956.31	–
308.15 K, x1 = 0.3754	1051.8	–
308.15 K, x1 = 0.3919	1071.93	–
308.15 K, x1 = 0.5009	1213.97	–
308.15 K, x1 = 0.5993	1357.19	–
308.15 K, x1 = 0.6916	1506.3	–
308.15 K, x1 = 0.7886	1681.76	–
308.15 K, x1 = 0.8919	1893.55	–
308.15 K, x1 = 1	2147.47	–
308.44 K, x1 = 0.9061	–	953.47
308.57 K, x1 = 0.6997	–	943.03
308.58 K, x1 = 0.4002	–	972.63
308.59 K, x1 = 0.6005	–	947.22
308.59 K, x1 = 0.8004	–	944.46
308.62 K, x1 = 0.1024	–	1047.4
308.62 K, x1 = 0.2986	–	992.63
308.65 K, x1 = 0.2	–	1018
308.75 K, x1 = 1	–	966.56
309.57 K, x1 = 0.4996	–	954.55
313.15 K, x1 = 0.1018	756.39	–
313.15 K, x1 = 0.2052	856.68	–
313.15 K, x1 = 0.2931	950.37	–
313.15 K, x1 = 0.3754	1045.35	–
313.15 K, x1 = 0.3919	1065.57	–
313.15 K, x1 = 0.5009	1207.14	–
313.15 K, x1 = 0.5993	1349.51	–
313.15 K, x1 = 0.6916	1498.2	–
313.15 K, x1 = 0.7886	1673.14	–
313.15 K, x1 = 0.8919	1884.12	–
313.15 K, x1 = 1	2136.96	–
314.45 K, x1 = 1	–	952
314.52 K, x1 = 0.9061	–	937.35
314.55 K, x1 = 0.6997	–	925.53
314.56 K, x1 = 0.2	–	995.72
314.58 K, x1 = 0.4002	–	952.25
314.58 K, x1 = 0.8004	–	927.74
314.59 K, x1 = 0.1024	–	1023.6
314.59 K, x1 = 0.4996	–	938.54
314.59 K, x1 = 0.6005	–	928.96
314.61 K, x1 = 0.2986	–	971.18
